{"source": "patent US12239707B2", "about": "“Photodynamic compositions and methods of use” (MT RESEARCH, LLC, priority 2018, dated 2025)", "origin": "cited, not measured here", "details": "taken orally; 95% remains intraluminal"}
{"smiles": "COC(=O)c1ccc2c(c1)NC(=O)/C2=C(\\Nc1ccc(N(C)C(=O)CN2CCN(C)CC2)cc1)c1ccccc1", "note": "[nintedanib]", "values": [{"measurement": "fraction of nintedanib absorbed", "value": 5, "unit": "%"}]}
